# Data reported in the supplement of paper PMC10307832.
# How the values were obtained:
# Assay in all cases: relative viability (nuclei count vs DMSO), 5 days (fraction); higher = more cells survive
# R406 + Navitoclax = compound: COc1cc(Nc2ncc(F)c(Nc3ccc4c(n3)NC(=O)C(C)(C)O4)n2)cc(OC)c1OC [R406] + CC1(C)CCC(c2ccc(Cl)cc2)=C(CN2CCN(c3ccc(C(=O)NS(=O)(=O)c4ccc(N[C@H](CCN5CCOCC5)CSc5ccccc5)c(S(=O)(=O)C(F)(F)F)c4)cc3)CC2)C1 [Navitoclax] (partner 0.5 µM)
# Procedure, shortened: (§1)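 Relative viability is defined as nuclei in treated wells over nuclei in vehicle wells. Duplicate plates were run and medians reported. Lung cancer cell lines in 1536-well plates were dosed by pin tool one day after seeding, with one drug or with a fixed anchor-drug dose plus five library-drug doses (not always all listed) in √10 steps, and nuclei were counted after 5 days.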
# R406 + Foretinib = compound: COc1cc(Nc2ncc(F)c(Nc3ccc4c(n3)NC(=O)C(C)(C)O4)n2)cc(OC)c1OC [R406] + COc1cc2c(Oc3ccc(NC(=O)C4(C(=O)Nc5ccc(F)cc5)CC4)cc3F)ccnc2cc1OCCCN1CCOCC1 [Foretinib] (partner 0.25 µM)
# Procedure, shortened: as §1
# R406 + Tozasertib = compound: COc1cc(Nc2ncc(F)c(Nc3ccc4c(n3)NC(=O)C(C)(C)O4)n2)cc(OC)c1OC [R406] + Cc1cc(Nc2cc(N3CCN(C)CC3)nc(Sc3ccc(NC(=O)C4CC4)cc3)n2)n[nH]1 [Tozasertib] (partner 0.1 µM)
# Procedure, shortened: as §1
# R406 + Trametinib = compound: COc1cc(Nc2ncc(F)c(Nc3ccc4c(n3)NC(=O)C(C)(C)O4)n2)cc(OC)c1OC [R406] + CC(=O)Nc1cccc(-n2c(=O)n(C3CC3)c(=O)c3c(Nc4ccc(I)cc4F)n(C)c(=O)c(C)c32)c1 [Trametinib] (partner 0.02 µM)
# Procedure, shortened: as §1
cell line,measurement,setting,value
UMC-11,relative viability,R406 + Navitoclax; first compound 0.08 µM,0.357
same,relative viability,R406 + Navitoclax; first compound 0.253 µM,0.321
same,relative viability,R406 + Navitoclax; first compound 0.8 µM,0.295
same,relative viability,R406 + Navitoclax; first compound 2.53 µM,0.288
same,relative viability,R406 + Navitoclax; first compound 8 µM,0.191
same,relative viability,R406 + Foretinib; first compound 0.08 µM,1.11
same,relative viability,R406 + Foretinib; first compound 0.253 µM,1.09
same,relative viability,R406 + Foretinib; first compound 0.8 µM,0.987
same,relative viability,R406 + Foretinib; first compound 2.53 µM,0.789
same,relative viability,R406 + Foretinib; first compound 8 µM,0.499
same,relative viability,R406 + Tozasertib; first compound 0.08 µM,0.203
same,relative viability,R406 + Tozasertib; first compound 0.253 µM,0.207
same,relative viability,R406 + Tozasertib; first compound 0.8 µM,0.205
same,relative viability,R406 + Tozasertib; first compound 2.53 µM,0.25
same,relative viability,R406 + Tozasertib; first compound 8 µM,0.185
same,relative viability,R406 + Trametinib; first compound 0.08 µM,0.724
same,relative viability,R406 + Trametinib; first compound 0.253 µM,0.959
same,relative viability,R406 + Trametinib; first compound 0.8 µM,0.776
same,relative viability,R406 + Trametinib; first compound 2.53 µM,0.874
same,relative viability,R406 + Trametinib; first compound 8 µM,0.482
